In patent publication US20060229250A1, “Ghrelin associated peptide and its uses” (priority 2005, published 2006):
Ends that are not written are not given here. * marks the point of attachment. Octanoyl = CCCCCCCC(=O)*

Key:
[1] = test system: plasma membrane preparations of rat jejunum; assay: I125-obestatin radioligand binding to jejunal membranes; conditions: for competition for labeled obestatin binding: displacement of iodinated wild type obestatin, rat jejunal membranes
Protocol: Iodination of obestatin was performed using the lodogen (Pierce, Upland, Ind.) procedure. Mixtures of the peptide (20 μg) and 1 mCi [125I] Nal were transferred to precoated lodogen vials and incubated for 4 min. The 125I-labeled peptide was applied to a Sep-Pak C18 cartridge (Waters) before elution with 60% acetonitrile/0.1% TFA. For radioligand binding assays, rat jejunum or other tissues were washed with buffer A (20 mM Hepes, 5 mM EDTA, 1 mM dithiothreitol (DTT), 10 μM amidinophenylmethanesulfonyl fluoride, 5 mg/L leupeptin, 100 mM KCl, pH 7.5), cut into small pieces, and homogenized using a motorized homogenizer. The homogenates were centrifuged at 1,000 g for 5 min. and the supernatant was centrifuged at 300,000 g for 1 hour at 2° C. The pellets (crude membrane fractions) were resuspended with buffer A without KCl, quickly frozen under liquid nitrogen, and stored at −80° C. until use.
After incubation, the tubes were centrifuged for 10 min. at 10,000 g, and pellets were washed twice in ice-cold PBS before quantitation of radioactivity with a γ-spectrophotometer. Specific binding was calculated by subtracting nonspecific binding from total binding.

[2] = Food intake in mice after peptide injection; type: in vivo
Protocol: (§1) Analysis of gastrointestinal functions. Eight-week-old C57BL6 male mice were housed individually in a regulated environment. Before intraperitoneal treatment with different peptides, mice were deprived of food for 16 hours with free access to water. Food intake was measured by placing preweighed pellets in the cage and weighing uneaten pellets at 5 hours after treatment. For intracerebroventricular injection of different peptides, mice were deprived of food for 16 hours. Free-hand injections were performed at 2 hours after light onset and food intake monitored for 5 hours. To estimate gastric emptying responses, mice deprived of food for 16 hours were given food pellets for 90 min. before injection of different hormones or saline. After treatment, mice were deprived of food again and sacrificed 0.5, 1, and 2 hours later. The stomach was excised at the pylorus and cardia before weighing. Gastric emptying was calculated by subtracting the stomach weight of treated mice from those sacrificed at the time of peptide injection.

[3] = Body weight in adult male rats under long-term peptide treatment; type: in vivo; conditions: 1 μmol per kg body weight, three times daily
Excerpt: The observed inhibition of jejunal contraction may trigger an afferent vagus signal to induce a central satiety response.

Gastric emptying in mice = type: in vivo; conditions: 1 μmol per kg body weight, 0.5, 1 and 2 hours after treatment
Protocol: as §1

jejunum muscle strips = assay: Isometric force measurement of jejunal muscle strips; conditions: in vitro; for contractile activity of jejunum muscle strips: isometric force, percent of maximal acetylcholine contraction
Protocol: Isometric force measurements. Strips of jejunal muscle (˜1 cm in length) were cut along the longitudinal axis of the circular muscle layer and the mucosa was removed to minimize contamination with endogenous peptides. Muscle strips were mounted to a TIS8105R (Kent Scientific Corporation, Torrington, Conn.) isometric strain gauge and immersed in a 5 ml organ bath maintained at 37° C. with oxygenated KRB [Krebs-Ringer phosphate buffer, consisting of 50 mM HEPES, 100 mM NaCl, 5 mM KCl, and 1 mM each of MgCl2, NaH2PO4, and CaCl2] as previously described. A resting force of 1.0 g was applied to intestinal muscles and a 1.5 hours equilibration period was allowed before testing of different peptides during a 5 min. period. After each test, muscle strips were washed with fresh KRB for 20 min. to allow full recovery of basal contractile activities. Maximal contraction was evaluated at the beginning and end of each experiment after treatment with 10 μM of acetylcholine chloride. Contractility data were digitized and stored in a computer using DAS Wizard™ (Measurement Computing, Middleboro, Mass.). The magnitude of contractile strength is expressed as percent of maximal contraction induced by acetylcholine.

[4] = test system: cultured rat pituitary cells; assay: Growth hormone secretion by cultured anterior pituitary cells; type: cell-based; conditions: 1 hour incubation
Protocol: Pituitary cell cultures. Anterior pituitaries were removed from adult male Sprague-Dawley rats and dispersed with 0.3% collagenase, 0.1% hyaluronidase and DNase I (10 μg/ml). The cell suspension was centrifuged at 300 g for 5 min. and cells were washed twice before incubation in Dulbecco minimal essential medium (DMEM) containing 0.1% bovine serum albumin (BSA), penicillin (100 units/ml), streptomycin (100 μg/ml), fungizone (2.5 μg/ml), and 10% fetal calf serum. Cells were seeded onto poly-lysine-coated 24-well plates at a density of ˜3×10^5 cells/well. Cultures were kept in a humidified atmosphere of 5% CO2 and 95% air at 37° C. […] Media was removed for growth hormone measurement by an enzyme-linked immunosorbent assay.

[5] = intracerebroventricular treatment, 8 nmol per kg body weight, mice, monitored for 5 hours
[6] = intraperitoneal injection, adult male mice deprived of food for 16 hours, cumulative intake up to 5 hours

With “FNAPFDVGIKLSGVLYQQHSQAL-NH2 [L15-obestatin]” the “competition for labeled obestatin binding” value [1] was “potency similar to the wild type obestatin”.

In the case of FNAPFDVGIKLSGVQYQQHSQAL-NH2 [obestatin], the food intake [2, 5] was “decreased food intake”, the food intake [2, 6] was “suppressed food intake in a time- and dose-dependent manner” and the body weight [3] was “suppressed body-weight gain”. The gastric emptying activity (Gastric emptying in mice) was “sustained suppression of gastric emptying activity”, the “contractile activity of jejunum muscle strips” value (jejunum muscle strips) was “decreased the contractile activity” and the “effect on ghrelin-stimulated contractile activity of jejunum muscle strips” value (jejunum muscle strips; together with ghrelin) was “antagonized the stimulatory effect of ghrelin”. The growth hormone secretion [4] was “did not increase GH secretion”.

In the case of “FNAPFDVGIKLSGVQYQQHSQALG (human) [NA-obestatin]”, the food intake [2, 6] was “less effective”.

In the case of “I125-obestatin: obestatin iodinated with [125I] NaI by the Iodogen procedure”, the “specific binding of I125-obestatin” value ([1]; saturation binding, crude plasma membrane fractions of rat jejunum) was “High affinity binding”.

For MTII [reference compound], the food intake [2, 5] was “anorexigenic effect”.

For “ghrelin: peptide of 28 amino acids, serine-3 n-octanoylated; endogenous GHSR ligand; purchased from Phoenix Pharmaceuticals (GSS(Octanoyl)FLSPEHQRVQQRKESKKPPAKLQPR; UniProt Q9UBU3 24-51, looked up) [reference compound]”, the body weight [3] was “increased body weight”, the “contractile activity of jejunum muscle strips” value (jejunum muscle strips) was “stimulatory effect” and the growth hormone secretion [4] was “stimulated growth hormone secretion”. For the same substance, the “competition for labeled obestatin binding” value [1] was “does not compete”.
